Values quoted from earlier work, collected in PMC9046186, “A distinctive ligand recognition mechanism by the human vasoactive intestinal polypeptide receptor 2” (Nature Communications, 2022).

Experiments:
[1] = test system: VIP2R; settings: introduction, Fig. 1a, b; no reference given
[2] = test system: VIP1R; settings: introduction, Fig. 1a, b; no reference given

Substance	affinity at VIP2R [1]	affinity at VIP1R [2]
Vasoactive intestinal peptide [VIP]	comparable affinity	comparable affinity
pituitary adenylate cyclase-activating polypeptide [PACAP38]	comparable affinity	comparable affinity
